Test results reported in patent publication US20180282323A1, “Mesoionic imidazole derivatives as insecticides” (BAYER CROPSCIENCE AKTIENGESELLSCHAFT, priority 2015, published 2018).
Where two headings read alike, the source gives them in different places. Blank lines part the entries; values can stand above or below the molecule they belong to.

Tests used:
Boophilus microplus = Boophilus microplus injection test; assay type: in vivo; conditions: application rate 20 μg/animal, assessed after 7 days by laying of fertile eggs
Procedure: Boophilus microplus—Injection Test Solvent: dimethyl sulphoxide
To produce a suitable active ingredient formulation, 10 mg of active ingredient are mixed with 0.5 ml of solvent and the concentrate is diluted with solvent to the desired concentration.
1 μl of the active ingredient solution is injected into the abdomen of 5 engorged adult female cattle ticks (Boophilus microplus). The animals are transferred into dishes and kept in a climate-controlled room.
Efficacy is assessed after 7 days by laying of fertile eggs. Eggs which are not visibly fertile are stored in a climate-controlled cabinet until the larvae hatch after about 42 days. An efficacy of 100% means that none of the ticks has laid any fertile eggs; 0% means that all the eggs are fertile.

Lucilia cuprina = Lucilia cuprina test; assay type: in vivo; conditions: application rate 100 ppm, L1 larvae, after 2 days
How it was run: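 About 20 L1 larvae placed in a vessel with minced horsemeat plus compound formulated in DMSO and diluted with water to the test concentration. Kill (%) scored after 2 days; 100% = all larvae dead, 0% = none dead.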

Myzus persicae [1] = assay: Myzus persicae spray test (Chinese cabbage leaf discs); assay type: in vivo; conditions: application rate 500 g/ha, after 6 days
How it was run: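 Active ingredient was formulated in acetone/DMF and diluted with water containing 1000 ppm emulsifier. Chinese cabbage leaf discs infested with all aphid stages were sprayed, and % kill was scored after 6 days (100% = all aphids dead).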

[2] = log P by HPLC on reversed-phase column (EEC directive 79/831 Annex V.A8); assay type: physicochemical; conditions: for chromatographic logP: reversed-phase C18 HPLC column
How it was run: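 Determined per EEC directive 79/831 Annex V.A8 by HPLC on a reversed-phase C18 column at 43° C.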

Ctenocephalides felis [3] = assay: Ctenocephalides felis oral test; assay type: in vivo; conditions: application rate 100 ppm in citrated cattle blood, after 2 days
Procedure: Ctenocephalides felis—Oral Test Solvent: dimethyl sulphoxide
For the purpose of production of a suitable active ingredient formulation, 10 mg of active ingredient are mixed with 0.5 ml of dimethyl sulphoxide. Dilution with citrated cattle blood gives the desired concentration.
About 20 unfed adult cat fleas (Ctenocephalides felis) are placed into a chamber which is closed at the top and bottom with gauze. A metal cylinder whose bottom end is closed with parafilm is placed onto the chamber. The cylinder contains the blood/active ingredient formulation, which can be imbibed by the fleas through the parafilm membrane.
After 2 days, the kill in % is determined. 100% means that all of the fleas have been killed; 0% means that none of the fleas have been killed.

Musca domestica = Musca domestica test; assay type: in vivo; conditions: application rate 100 ppm, adult houseflies, after 2 days
Procedure: Musca domestica Test Solvent: dimethyl sulphoxide
To produce a suitable active ingredient formulation, 10 mg of active ingredient are mixed with 0.5 ml of dimethyl sulphoxide, and the concentrate is diluted with water to the desired concentration.
Vessels containing a sponge treated with sugar solution and the active ingredient formulation of the desired concentration are populated with 10 adult houseflies (Musca domestica).
After 2 days, the kill in % is determined. 100% means that all of the flies have been killed; 0% means that none of the flies have been killed.

Ctenocephalides felis [4] = assay: Ctenocephalides felis in vitro contact test with adult cat fleas; assay type: in vivo; conditions: application rate 5 μg/cm^2, after 48 h, adult cat fleas dead or moribund
Procedure: Ctenocephalides felis—In Vitro Contact Tests with Adult Cat Fleas
For the coating of the test tubes, 9 mg of active ingredient are first dissolved in 1 ml of acetone p.a. and then diluted to the desired concentration with acetone p.a. 250 μl of the solution are distributed homogeneously on the inner walls and the base of a 25 ml test tube by turning and rocking on an orbital shaker (rocking rotation at 30 rpm for 2 h). With 900 ppm of active ingredient solution and internal surface area 44.7 cm^2, given homogeneous distribution, an area-based dose of 5 μg/cm^2 is achieved.
After the solvent has evaporated off, the tubes are populated with 5-10 adult cat fleas (Ctenocephalides felis), sealed with a perforated plastic lid and incubated in a horizontal position at room temperature and ambient humidity. After 48 h, efficacy is determined. To this end, the test tubes are stood upright and the fleas are knocked to the base of the tube. Fleas which remain motionless at the base or move in an uncoordinated manner are considered to be dead or moribund.
100% efficacy means that all the fleas were dead or moribund. 0% efficacy means that no fleas were harmed.

Myzus persicae [5] = assay: Myzus persicae oral test; assay type: in vivo; conditions: application rate 20 ppm, oral uptake through parafilm, after 5 days
How it was run: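 Compound dissolved in acetone, diluted with water, then mixed into IPL41 insect medium with sugar in microtitre plates under parafilm. Mixed-population green peach aphids fed through the membrane; % mortality scored after 5 days (100% = all killed).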

Tetranychus urticae = Tetranychus urticae spray test, OP-resistant; assay type: in vivo; conditions: application rate 500 g/ha, bean leaf discs, all stages, after 6 days
Procedure: Tetranychus urticae—Spray Test, OP-Resistant Solvent: 78.0 parts by weight of acetone • • 1.5 parts by weight of dimethylformamide Emulsifier: alkylaryl polyglycol ether
To produce a suitable active ingredient formulation, 1 part by weight of active ingredient is dissolved with the stated parts by weight of solvent and made up with water containing an emulsifier concentration of 1000 ppm until the desired concentration is attained. To produce further test concentrations, the formulation is diluted with emulsifier-containing water.
Discs of bean leaves (Phaseolus vulgaris) infested with all stages of the greenhouse red spider mite (Tetranychus urticae) are sprayed with an active ingredient formulation of the desired concentration.
After 6 days, the efficacy in % is determined. 100% means that all the spider mites have been killed; 0% means that no spider mites have been killed.

Compound: COCC(=O)c1c([O-])n(Cc2ccc(Cl)nc2)c2cccc[n+]12 [Example I-1-003]
efficacy (Boophilus microplus): 80%
efficacy (kill in %) (Lucilia cuprina): 100%
efficacy (Myzus persicae [1]): 100%
log p ([2]; HPLC on reversed-phase column (footnote a)): 1.18
efficacy (kill in %) (Ctenocephalides felis [3]): 95%
efficacy (kill in %) (Musca domestica): 80%
efficacy (Ctenocephalides felis [4]): 100%
efficacy (Myzus persicae [5]): 100%

chromatographic logP ([2]; pH 2.7, HPLC on reversed-phase column (footnote a), read-out: log p): 1.47
chromatographic logP ([2]; HPLC-MS, reversed-phase C18, 43° C., calibration with alkan-2-ones, read-out: log P): 1.47
Compound: O=C(Cn1cccn1)c1c([O-])n(Cc2cnc(Cl)s2)c2cccc[n+]12 [Example I-1-009, 1-[(2-Chloro-1,3-thiazol-5-yl)methyl]-3-(1H-pyrazol-1-ylacetyl)-1H-imidazo[1,2-a]pyridin-4-ium-2-olate]
efficacy (Boophilus microplus): 100%
efficacy (kill in %) (Lucilia cuprina): 100%
efficacy (Myzus persicae [1]): 90%
efficacy (Tetranychus urticae): 90%
pest or weed control at 20 ppm (Myzus persicae [5]; Myzus persicae, 120 h, read-out: efficacy): 100%
